In patent US20110065669A1, “OXAZOLOBENZIMIDAZOLE DERIVATIVES” (Merck Sharp & Dohme Corp., priority 2008, published 2011):

Target: T1, recombinant human mGluR2 (Homo sapiens, UniProt Q14416)
T1 construct: expressed in transfected cells
Test: FLIPR assay (Ca2+ mobilization), potentiation of the mGluR2 receptor
Format: cell-based
Conditions: CHO dhfr- cells expressing human mGluR2 and Gα16; potentiation after EC20 glutamate (900 nM)
Method: Inhibition constants are determined as follows. The compounds of the present invention may be tested in a […] (FLIPR) based assay. This assay is a common functional assay to monitor Ca^2+ mobilization in whole cells expressing recombinant receptor coupled with a promiscuous G-protein. CHO dhfr-cells stably expressing recombinant human mGluR2 and Gα16 loaded with Fluo-4 AM (Invitrogen, Carlsbad Calif.) are treated with dose responses of compounds and the Ca^2+ response is monitored on a FLIPR384 (Molecular Devices, Sunnydale Calif.) for agonist activity. The potentiation response is monitored after a subsequent addition of an EC20 concentration of glutamate (900 nM). The maximum calcium response at each concentration of compound for agonist or potentiation are plotted as dose responses and the curves are fitted with a four parameters logistic equation giving EC50 and Hill coefficient using the iterative non linear curve fitting software program.

T1 sequence (Q14416 19-872): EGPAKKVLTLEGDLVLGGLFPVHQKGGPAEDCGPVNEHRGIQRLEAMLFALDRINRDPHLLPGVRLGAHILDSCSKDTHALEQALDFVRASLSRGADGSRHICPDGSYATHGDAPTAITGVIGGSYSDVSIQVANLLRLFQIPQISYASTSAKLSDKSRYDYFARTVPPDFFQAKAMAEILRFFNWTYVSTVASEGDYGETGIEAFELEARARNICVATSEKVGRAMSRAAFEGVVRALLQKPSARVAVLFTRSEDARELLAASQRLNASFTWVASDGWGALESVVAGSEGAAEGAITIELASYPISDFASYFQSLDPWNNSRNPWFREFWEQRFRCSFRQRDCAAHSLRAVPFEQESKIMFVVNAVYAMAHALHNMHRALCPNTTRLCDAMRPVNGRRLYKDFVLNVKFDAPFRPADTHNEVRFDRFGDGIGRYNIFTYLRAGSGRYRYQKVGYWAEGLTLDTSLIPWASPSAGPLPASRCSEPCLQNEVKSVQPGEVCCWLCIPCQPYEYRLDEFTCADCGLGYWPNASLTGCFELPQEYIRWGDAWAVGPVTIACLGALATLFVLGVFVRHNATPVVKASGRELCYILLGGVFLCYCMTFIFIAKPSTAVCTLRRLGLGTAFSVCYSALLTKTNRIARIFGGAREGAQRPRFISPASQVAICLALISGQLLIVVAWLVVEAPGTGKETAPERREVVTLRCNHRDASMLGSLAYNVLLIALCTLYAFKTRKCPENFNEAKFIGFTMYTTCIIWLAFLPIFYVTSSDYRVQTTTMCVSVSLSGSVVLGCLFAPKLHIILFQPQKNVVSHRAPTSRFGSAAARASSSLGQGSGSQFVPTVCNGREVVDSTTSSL

Row | EC50 | Structure (SMILES)
1 | 11 nM | CC(C)(C)c1ccc(OC[C@@H]2Cn3c(nc4ccccc43)O2)cc1 [Example 1-4, (2S)-2-[(4-tert-butylphenoxy)methyl]-2,3-dihydro[1,3]oxazolo[3,2-a]benzimidazole]
2 | 522 nM | CC(=O)c1cccc(OC[C@@H]2Cn3c(nc4ccccc43)O2)c1 [Example 1-5, 1-{3-[(2S)-2,3-dihydro[1,3]oxazolo[3,2-a]benzimidazol-2-ylmethoxy]phenyl}ethanone]
3 | 37 nM | Clc1cccc(OC[C@@H]2Cn3c(nc4ccccc43)O2)c1 [Example 3-9, (2S)-2-[(3-chlorophenoxy)methyl]-2,3-dihydro[1,3]oxazolo[3,2-a]benzimidazole]
4 | 235 nM | c1ccc(OC[C@@H]2Cn3c(nc4ccccc43)O2)cc1 [Example 3-20, (2S)-2-(phenoxymethyl)-2,3-dihydro[1,3]oxazolo[3,2-a]benzimidazole, reference compound]

The remaining lines, values behind:

Row | Structure (SMILES) | EC50
5 | Cn1nccc1-c1ccc(OC[C@@H]2Cn3c(nc4ccccc43)O2)cc1 [Example 2-1, (2S)-2-{[4-(1-methyl-1H-pyrazol-5-yl)phenoxy]methyl}-2,3-dihydro[1,3]oxazolo[3,2-a]benzimidazole] | 137 nM
6 | CC(C)(c1ccc(OC[C@@H]2Cn3c(nc4ccccc43)O2)cc1)C(F)(F)F [Example 3-5, (2S)-2-{[4-(2,2,2-trifluoro-1,1-dimethylethyl)phenoxy]methyl}-2,3-dihydro[1,3]oxazolo[3,2-a]benzimidazole] | 12 nM
7 | C[Si](C)(C)c1ccc(OC[C@@H]2Cn3c(nc4ccccc43)O2)cc1 [Example 4-1, (2S)-2-{[4-(trimethylsilyl)phenoxy]methyl}-2,3-dihydro[1,3]oxazolo[3,2-a]benzimidazole] | 27 nM
